Several values for one entry are separate records, joined by “and”; a condition that tells them apart may be missing. Identical values can stand only once. Like-named read-outs stand apart in the source and are kept apart here.
Columns and labels:
[1] = Passive artificial membrane permeability (PAMPA); conditions: for PAMPA permeability: % permeability: acceptor concentration relative to equilibrium;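 for PAMPA permeability: % permeability: acceptor concentration relative to equilibrium after 12–18 h at 50 µM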
[2] = Metabolic stability in rat liver microsomes (RLMs); conditions: for half-life at 10 μM / microsomal CLint at 10 μM: rat
[3] = molecular target: human α-thrombin (Homo sapiens, UniProt P00734); experiment: Protease inhibition, Ki for human α-thrombin (fluorogenic substrate Z-Gly-Gly-Arg-AMC); assay type: biochemical; conditions: for slope normalized to DMSO, human alpha thrombin inhibition: replicates R1-R3
How it was run: (§1)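 Ki derived through Cheng–Prusoff from IC50s (four-parameter logistic fit) against activity of peptide-free controls. Product fluorescence was read every 3 min over 30 min at 25 °C, substrate Z-Gly-Gly-Arg-AMC at 50 μM. Enzyme was 2 nM human or 3 nM rat α-thrombin, pH 7.4 buffer.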

[4] = molecular target: T1, rat α-thrombin (Rattus norvegicus, UniProt P18292); experiment: Protease inhibition, Ki for rat α-thrombin (fluorogenic substrate Z-Gly-Gly-Arg-AMC); assay type: biochemical; conditions: for slope normalized to DMSO, rat alpha thrombin inhibition: replicates R1-R3
T1 construct: rat α-thrombin (Molecular Innovations) were used at final concentrations of 2 nM and 3 nM; purchased Molecular Innovations
How it was run: as §1

[5] = rat liver microsomes, individual replicates R1-R3, incubation volume 400 ul, protein 0.5 mg/ml

## C[C@]12CC[C@H]3[C@@H](CCC4=CC(=O)CC[C@@]43C)[C@@H]1CC[C@@H]2O [Testosterone, reference compound]
[1]; 50 μM, 12–18 h
  PAMPA permeability: % permeability: 88.2 ± 1.1%
[2]; rat liver microsomes, 0 min incubation, LCMS TIC, individual replicates R1-R3, protein 0.5 mg/ml, Ox (+16)/(+32), deMe (-14)/(-28) = mass adducts (metabolites)
  TIC value at 0 min: 365657 (2×) and 448878
[2]; rat liver microsomes, 5 min incubation, LCMS TIC, individual replicates R1-R3, protein 0.5 mg/ml
  TIC value at 5 min: 76968 and 89225 and 92782
[2]; rat liver microsomes, 15 min incubation, LCMS TIC, individual replicates R1-R3, protein 0.5 mg/ml
  TIC value at 15 min: 0
[2]; rat liver microsomes, 30 min incubation, LCMS TIC, individual replicates R1-R3, protein 0.5 mg/ml
  TIC value at 30 min: 0
[2]; rat liver microsomes, 60 min incubation, LCMS TIC, individual replicates R1-R3, protein 0.5 mg/ml
  TIC value at 60 min: 0
[2]; rat liver microsomes, individual replicates R1-R3
  Half Life: 2.29 min and 2.19 min
[2]; [5]
  RLM CL: 606.56 ul/min/mg protein and 632.01 ul/min/mg protein
[2]; microsomes, pH 7.4, Half Life Mean, rat liver microsomes, mean of R1-R3
  half-life at 10 μM: 2.23 min
[2]; microsomes, pH 7.4, Half Life, rat liver microsomes, individual replicates R1-R3
  half-life at 10 μM: 2.21 min
[2]; microsomes, pH 7.4, Metabolic stability: Half life T1/2 (min), RLMs, mean and SD, three measurements
  half-life at 10 μM: 2.2 ± 0.1 min
[2]; microsomes, pH 7.4, Metabolic stability: RLM CL (ul/min/mg), RLMs, mean and SD, three measurements
  microsomal CLint at 10 μM: 620 ± 10 µL/min/mg
[2]; microsomes, pH 7.4, RLM CL Mean, rat liver microsomes, mean of R1-R3
  microsomal CLint at 10 μM: 622 µL/min/mg
[2]; microsomes, pH 7.4, RLM CL, rat liver microsomes, individual replicates R1-R3, incubation volume 400 ul, protein 0.5 mg/ml
  microsomal CLint at 10 μM: 626 µL/min/mg

## CC(=O)CC(c1ccccc1)c1c(O)c2ccccc2oc1=O (stereo not drawn) [Warfarin, warfarin, reference compound]
[1]; 50 μM, 12–18 h
  PAMPA permeability: % permeability: 50 ± 5%
[1]; PAMPA, pH 7.4, PAMPA permeability: logPapp, 50 μM, 12–18 h
  Papp at 50 μM: 4.57 ×10⁻⁶ cm/s
[1]; PAMPA, pH 7.4, apparent permeability logPapp (PAMPA), 50 μM, pH 7.4, 12–18 h
  Papp at 50 μM: 5.01 ×10⁻⁶ cm/s
[1]; PAMPA, average of R1-R3
  Permeability% Average: 50.0%
[1]; PAMPA, replicate R1, TIC of top well sample relative to sample at theoretical equilibrium
  Permeability% R1: 48.28%
[1]; PAMPA, replicate R3, TIC of top well sample relative to sample at theoretical equilibrium
  Permeability% R3: 55.67%
[2]; RLM CL, replicate R1
  CL (ul/min/mg protein) R1: 3.761 ul/min/mg protein
[2]; [5]
  RLM CL: 2.64 ul/min/mg protein
[2]; rat liver microsomes, pH 7.4
  microsomal CLint at 10 μM: 2 µL/min/mg

## O=C1C[C@H]2CCCN2C(=O)[C@H](Cc2ccccc2)NC(=O)[C@@H](NC(=O)c2ccc(Cl)cc2F)CCC=CCCCCN1 [compound 45]
[3]; average of R1-R3, read-out: Ki Average, human alpha thrombin inhibition
  Ki: 0.204 µM
[3]; individual replicates R1-R3, read-out: IC50, human alpha thrombin inhibition
  IC50: 0.273 µM and 0.252 µM and 0.268 µM
[3]; individual replicates R1-R3, read-out: Ki, human alpha thrombin inhibition
  Ki: 210 nM (2×) and 194 nM (2×) and 207 nM (2×)
[3]; peptide 1.00E+02 uM
  slope normalized to DMSO, human alpha thrombin inhibition: 11.3 and 11.6 and 10.6
[3]; peptide 1.19E-05 uM
  slope normalized to DMSO, human alpha thrombin inhibition: 102.6 and 106.2 and 105.7
[3]; peptide 1.22E-02 uM
  slope normalized to DMSO, human alpha thrombin inhibition: 98.0 and 95.4 and 97.5
[3]; peptide 1.25E+01 uM
  slope normalized to DMSO, human alpha thrombin inhibition: 13.9 and 11.8 and 11.3
[3]; peptide 1.53E-03 uM
  slope normalized to DMSO, human alpha thrombin inhibition: 101.7 and 103.3 and 104.5
[3]; peptide 1.56E+00 uM
  slope normalized to DMSO, human alpha thrombin inhibition: 26.6 and 25.5 (2×)
[3]; peptide 1.91E-04 uM
  slope normalized to DMSO, human alpha thrombin inhibition: 103.0 and 99.2 and 105.0
[3]; peptide 1.95E-01 uM
  slope normalized to DMSO, human alpha thrombin inhibition: 64.4 and 63.8 and 63.5
[3]; peptide 2.38E-05 uM
  slope normalized to DMSO, human alpha thrombin inhibition: 102.9 and 103.4 and 104.0
[3]; peptide 2.44E-02 uM
  slope normalized to DMSO, human alpha thrombin inhibition: 93.3 and 91.7 and 93.0
[3]; peptide 2.50E+01 uM
  slope normalized to DMSO, human alpha thrombin inhibition: 12.2 and 11.9 and 11.6
[3]; peptide 3.05E-03 uM
  slope normalized to DMSO, human alpha thrombin inhibition: 101.3 and 101.9 and 102.4
[3]; peptide 3.12E+00 uM
  slope normalized to DMSO, human alpha thrombin inhibition: 19.4 (2×) and 18.4
[3]; peptide 3.81E-04 uM
  slope normalized to DMSO, human alpha thrombin inhibition: 103.1 and 102.3 and 104.4
[3]; peptide 3.91E-01 uM
  slope normalized to DMSO, human alpha thrombin inhibition: 49.6 and 45.7 and 49.0
[3]; peptide 4.77E-05 uM
  slope normalized to DMSO, human alpha thrombin inhibition: 101.9 and 103.1 and 105.2
[3]; peptide 4.88E-02 uM
  slope normalized to DMSO, human alpha thrombin inhibition: 85.5 and 84.9 and 86.4
[3]; peptide 5.00E+01 uM
  slope normalized to DMSO, human alpha thrombin inhibition: 11.7 and 11.4 and 7.8
[3]; peptide 6.10E-03 uM
  slope normalized to DMSO, human alpha thrombin inhibition: 99.7 and 99.5 and 102.0
[3]; peptide 6.25E+00 uM
  slope normalized to DMSO, human alpha thrombin inhibition: 15.9 and 15.6 and 14.9
[3]; peptide 7.63E-04 uM
  slope normalized to DMSO, human alpha thrombin inhibition: 102.4 (2×) and 103.3
[3]; peptide 7.81E-01 uM
  slope normalized to DMSO, human alpha thrombin inhibition: 36.6 and 35.0 and 35.1
[3]; peptide 9.54E-05 uM
  slope normalized to DMSO, human alpha thrombin inhibition: 103.4 and 102.3 and 101.0
[3]; peptide 9.77E-02 uM
  slope normalized to DMSO, human alpha thrombin inhibition: 76.3 and 76.5 and 77.1
[4]; average of R1-R3, read-out: Ki Average, rat alpha thrombin inhibition
  Ki: 0.0364 µM
[4]; individual replicates R1-R3, read-out: IC50, rat alpha thrombin inhibition
  IC50: 0.067 µM and 0.0661 µM and 0.0643 µM
[4]; individual replicates R1-R3, read-out: Ki, rat alpha thrombin inhibition
  Ki: 0.0371 µM and 0.0366 µM and 0.0356 µM
[4]; peptide 1.00E+02 uM
  slope normalized to DMSO, rat alpha thrombin inhibition: 6.9 and 7.8 and 7.9
[4]; peptide 1.19E-05 uM
  slope normalized to DMSO, rat alpha thrombin inhibition: 99.4 and 99.8 and 100.7
[4]; peptide 1.22E-02 uM
  slope normalized to DMSO, rat alpha thrombin inhibition: 80.5 and 81.1 and 80.7
[4]; peptide 1.25E+01 uM
  slope normalized to DMSO, rat alpha thrombin inhibition: 8.5 and 8.3 (2×)
[4]; peptide 1.53E-03 uM
  slope normalized to DMSO, rat alpha thrombin inhibition: 95.1 and 94.7 (2×)
[4]; peptide 1.56E+00 uM
  slope normalized to DMSO, rat alpha thrombin inhibition: 12.6 and 12.3 and 12.5
[4]; peptide 1.91E-04 uM
  slope normalized to DMSO, rat alpha thrombin inhibition: 97.1 (2×) and 95.3
[4]; peptide 1.95E-01 uM
  slope normalized to DMSO, rat alpha thrombin inhibition: 34.2 and 33.8 and 33.2
[4]; peptide 2.38E-05 uM
  slope normalized to DMSO, rat alpha thrombin inhibition: 93.5 and 98.9 and 98.6
[4]; peptide 2.44E-02 uM
  slope normalized to DMSO, rat alpha thrombin inhibition: 71.8 and 70.1 and 71.0
[4]; peptide 2.50E+01 uM
  slope normalized to DMSO, rat alpha thrombin inhibition: 8.3 and 8.0 and 8.8
[4]; peptide 3.05E-03 uM
  slope normalized to DMSO, rat alpha thrombin inhibition: 90.8 and 91.5 and 91.2
[4]; peptide 3.12E+00 uM
  slope normalized to DMSO, rat alpha thrombin inhibition: 10.1 (2×) and 10.3
[4]; peptide 3.81E-04 uM
  slope normalized to DMSO, rat alpha thrombin inhibition: 97.2 and 95.5 and 95.9
[4]; peptide 3.91E-01 uM
  slope normalized to DMSO, rat alpha thrombin inhibition: 22.7 and 22.8 and 22.5
[4]; peptide 4.77E-05 uM
  slope normalized to DMSO, rat alpha thrombin inhibition: 97.5 and 97.4 and 98.2
[4]; peptide 4.88E-02 uM
  slope normalized to DMSO, rat alpha thrombin inhibition: 57.9 and 58.1 and 57.0
[4]; peptide 5.00E+01 uM
  slope normalized to DMSO, rat alpha thrombin inhibition: 8.1 (2×) and 8.0
[4]; peptide 6.10E-03 uM
  slope normalized to DMSO, rat alpha thrombin inhibition: 75.2 and 85.9 and 86.8
[4]; peptide 6.25E+00 uM
  slope normalized to DMSO, rat alpha thrombin inhibition: 9.3 (2×) and 10.3
[4]; peptide 7.63E-04 uM
  slope normalized to DMSO, rat alpha thrombin inhibition: 94.5 (2×) and 95.4
[4]; peptide 7.81E-01 uM
  slope normalized to DMSO, rat alpha thrombin inhibition: 16.5 and 16.1 and 16.2
[4]; peptide 9.54E-05 uM
  slope normalized to DMSO, rat alpha thrombin inhibition: 96.4 and 97.0 and 98.4
[4]; peptide 9.77E-02 uM
  slope normalized to DMSO, rat alpha thrombin inhibition: 46.4 and 46.1 and 46.7
[1]; 50 μM, 12–18 h
  PAMPA permeability: % permeability: 66 ± 14%
[1]; 50 μM, 12 h (Fig. 6d)
  Permeability% (single replicates R1–R3): 56.67% and 58.98% and 81.87%
  Permeability% Average: 65.8%
[1]; PAMPA, pH 7.4
  Papp at 50 μM: 10.7 ×10⁻⁶ cm/s

Reference: paper PMC11062899, “De novo development of small cyclic peptides that are orally bioavailable” (Nature Chemical Biology, 2023)
